Measurements published in publication PMC10689823, “Discovery of a Drug-like, Natural Product-Inspired DCAF11 Ligand Chemotype” (Nature Communications, 2023).
“And” between values parts separate entries of the source, which are not always exact repeats. Equal entries are not always repeated.

Tests used:
Assay type in all cases: cell-based
[1] = Cell viability assay (CellTiter-Glo) in Jurkat cells; conditions: human, Jurkat cells; for viability at 72 h, 10 nmol/L: concentration 10 nmol/L; for viability at 72 h, 100 nmol/L: concentration 100 nmol/L; for viability at 72 h, 300 nmol/L: concentration 300 nmol/L; for viability at 72 h, 1000 nmol/L: concentration 1000 nmol/L; for viability at 72 h, 3000 nmol/L: concentration 3000 nmol/L; for viability at 72 h, 10000 nmol/L: concentration 10000 nmol/L; for viability at 72 h, 0.01 µM: 10 nM; for viability at 72 h, 0.1 µM: 100 nM; for viability at 72 h, 1 µM: 1000 nM; for viability at 72 h, 3 µM: 3000 nM
Description: (§1) Jurkat cells (3 × 10^3) and Hep G2 cells (3.5 × 10^3) were seeded in 96-well plates in 100 μL culture medium. Cells were treated with compounds dissolved in 50 μl medium at the indicated concentration for 72 h, at the same time, one plate of cells without compounds treatment was used for the cell count at time zero. After adding 40 μl of CellTiter-Glo® reagent (Promega, G7571) to each well for 10 min at room temperature, the luminescence was measured on a Spark® Multimode Microplate Reader (Tecan). The data was analyzed by the GraphPad Prism 9.0.

Jurkat cells = experiment: as above; conditions: for GI50: Homo sapiens; for GI50 / Relative cell viability (%): Jurkat cells, 72 h; for Relative cell viability (%): Fig. 4k; for Cell viability (%) relative to DMSO: individual replicates, Supplementary Fig. 7g
Description: as §1

BRD2 [2] = molecular target: BRD2 (Homo sapiens, UniProt P25440); experiment: BRD2 levels by Western blot in KBM7 cells (WT, DCAF11 knockout, DDB1 knockout); parameters: endogenous in cells; host or cells: KBM7 (WT, DCAF11 KO, DDB1 KO); conditions: 4 h
Description: Cells were washed with PBS and lysed in lysis buffer (50 mM Tris-HCl, pH 7.4, 150 mM NaCl, 1% Triton X-100, 1% sodium deoxycholate, 0.1% SDS) with complete protease inhibitor cocktail (Roche, 11836170001) for 30 min on ice. For Ramos cells, cell pellets were lysed in lysis buffer (50 mM Tris-HCl, pH 8, 150 mM NaCl, 1% NP-40, 0.5% sodium deoxycholate) with complete protease inhibitor cocktail. After centrifugation at 16,000 x g, the supernatant was transferred into a new tube and the protein concentration was determined by DC protein assay (BIO-RAD, 5000116). Proteins were separated by SDS-PAGE and transferred to a PVDF membrane (Thermo scientific, 0.45 μm, 88518). For PDEδ, BRD2, GAPDH, BRD4, Vinculin and BTK, the membranes were blocked with Intercept® Blocking Buffer (LI-COR Biosciences, 927-70001) at room temperature for 1 h. The primary antibodies for these proteins were diluted with Intercept® Blocking Buffer (1:500 for PDEδ, 1:3000 for Vinculin, and 1:1000 for other proteins) and incubated with the membranes overnight at 4 °C. Membranes were washed with PBS + 0.1% Tween 20 (PBS-T) five times and incubated with secondary antibodies conjugated to IRDye® Infrared Fluorescent Dyes (1:5000, LI-COR Biosciences) at room temperature for 1 h with protection from light. After washing the membrane, signals were visualized using the ChemiDoc MP Imaging System (BIO-RAD Laboratories). For detection of LC3B, BRD3, BLK, DCAF11, DDB1 RBX1, FIP200, V5- and FLAG-Tag the membranes were blocked with 5% milk in PBS-T at room temperature for 1 h. The primary antibodies for these proteins were diluted in 5% milk in PBS-T buffer (1:200 for BRD3, 1:1000 for other proteins) and incubated with the membranes overnight at 4 °C. Membranes were washed with PBS-T five times and incubated with HRP secondary antibodies (1:1500) at room temperature for 1 h. After washing the membrane, protein detection was performed using Western blotting detection reagent (Thermo Scientific, 34095) and the ChemiDoc MP Imaging System (BIO-RAD). Relative band intensities were quantified using Image Lab (BIO-RAD).
DCAF11- or FIP200 (RB1CC1)-targeting sgRNAs were lentivirally packaged using PEI transfection of Lenti-X cells. The viral supernatant was harvested after 72 h, cleared of cellular debris by filtration through a 0.45-µm PES filter and stored in aliquots at −80 °C. The appropriate amount of viral supernatant was transduced into KBM7 cells (1 × 10^6 cells/mL) via spinfection (2000 rpm, 1 h, 37 °C) with polybrene (8 µg/mL). Two days post transduction, the cells were selected with puromycin (1 µg/mL) for a total of 5 days, after which the knockout pools were validated via western blotting.

caspase-3/7 activity = experiment: Caspase-3/7 Activity Assay in Jurkat cells; conditions: 18 h, Fig. 4l
Description: Jurkat cells (3 × 10^3) were seeded in 96-well plates in 25 μl culture medium. Cells were treated with compounds dissolved in 25 μl medium at the indicated concentration for 18 h. After adding 50 μl of Caspase-Glo® 3/7 Reagent (Promega, G8091) to each well for 30 min at room temperature, the luminescence was measured on a Spark® Multimode Microplate Reader (Tecan). The data was analyzed by the GraphPad Prism 9.0.

BRD2 [3] = experiment: In-Cell Western for BRD2 levels in Hep G2 cells; conditions: Hep G2 cells; 4 h
Description: Hep G2 cells were seeded in 96-well plates and incubated for 24 h. Compounds were added for the indicated time at the indicated concentration. Cells were then washed once with PBS and fixed with 4% paraformaldehyde for 30 min at room temperature. The fixed cells were permeabilized with 0.5 % Triton-X100 for 15 min followed by block with Intercept® Blocking Buffer (LI-COR Biosciences, 927-70001) for 1 h at room temperature. Primary antibodies for BRD2 (1:800) and Vinculin (1:2000) were diluted with LI-COR buffer and incubated with the cells at 4 °C overnight. Cells were washed with PBS-T, and the secondary antibodies conjugated to IRDye (1:1000, LI-COR Biosciences) were added to the cells for 1 h at room temperature. After washing the cells, the signal was recorded with the Odyssey® CLx Infrared Imaging System (LI-COR Biosciences) and the protein levels were analyzed by Image Studio (LI-COR Biosciences). BRD2 protein levels were normalized to the levels of reference protein vinculin.

[4] = individual replicates, Supplementary Fig. 7g, read-out: Cell viability (%) relative to DMSO
[5] = 72 h, Fig. 4k, read-out: Relative cell viability (%)

BRD2 (Homo sapiens, UniProt P25440), sequence (P25440 whole entry): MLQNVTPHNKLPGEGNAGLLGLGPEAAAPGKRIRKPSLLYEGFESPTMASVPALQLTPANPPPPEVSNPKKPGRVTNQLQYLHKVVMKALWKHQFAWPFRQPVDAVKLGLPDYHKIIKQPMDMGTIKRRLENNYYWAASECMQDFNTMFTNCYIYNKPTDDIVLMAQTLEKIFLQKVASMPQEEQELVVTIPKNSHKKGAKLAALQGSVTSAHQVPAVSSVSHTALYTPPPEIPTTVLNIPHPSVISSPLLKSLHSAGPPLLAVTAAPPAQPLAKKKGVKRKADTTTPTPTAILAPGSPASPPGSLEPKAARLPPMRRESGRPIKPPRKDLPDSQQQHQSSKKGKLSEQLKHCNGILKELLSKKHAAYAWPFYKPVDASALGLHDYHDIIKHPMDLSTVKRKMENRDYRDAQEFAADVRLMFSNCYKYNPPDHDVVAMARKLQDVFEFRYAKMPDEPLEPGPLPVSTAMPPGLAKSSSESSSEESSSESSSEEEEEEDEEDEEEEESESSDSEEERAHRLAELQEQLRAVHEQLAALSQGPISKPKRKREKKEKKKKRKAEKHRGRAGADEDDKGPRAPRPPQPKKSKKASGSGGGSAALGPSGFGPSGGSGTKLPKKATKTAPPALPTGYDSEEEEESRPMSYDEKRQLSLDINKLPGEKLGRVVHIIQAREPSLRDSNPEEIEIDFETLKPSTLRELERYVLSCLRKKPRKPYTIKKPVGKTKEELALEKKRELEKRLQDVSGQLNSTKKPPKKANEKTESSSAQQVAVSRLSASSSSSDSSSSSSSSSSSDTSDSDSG

Row | Compound | viability at 72 h, 10 nmol/L [1, 4] | viability at 72 h, 100 nmol/L [1, 4] | viability at 72 h, 300 nmol/L [1, 4] | viability at 72 h, 1000 nmol/L [1, 4] | viability at 72 h, 3000 nmol/L [1, 4] | viability at 72 h, 10000 nmol/L [1, 4] | viability at 72 h, 0.01 µM [1, 5] | viability at 72 h, 0.1 µM [1, 5] | viability at 72 h, 1 µM [1, 5] | viability at 72 h, 3 µM [1, 5] | GI50 (Jurkat cells) | Relative cell viability (%) (Jurkat cells; 10 nM, 0.01 µM) | Relative cell viability (%) (Jurkat cells; 30 nM, 0.03 µM) | Relative cell viability (%) (Jurkat cells; 100 nM, 0.1 µM) | Relative cell viability (%) (Jurkat cells; 300 nM, 0.3 µM) | Relative cell viability (%) (Jurkat cells; 1000 nM, 1 µM) | Relative cell viability (%) (Jurkat cells; 3000 nM, 3 µM) | Relative cell viability (%) (Jurkat cells; 10000 nM, 10 µM) | Relative cell viability (%) (Jurkat cells; 30000 nM, 30 µM) | Cell viability (%) relative to DMSO (Jurkat cells; concentration 10 nmol/L) | further results
1 | Cc1sc2c(c1C)C(c1ccc(Cl)cc1)=NC(CC(=O)NCCOCCOCCOCCOc1c(Br)cc(CC3C(=O)Nc4ccc(Br)cc43)cc1Br)c1nnc(C)n1-2 (stereo not drawn) [Compound 17] | 104% | 100% | 92.8% | 80.1% | 58.9% | 38.2% | 120% | 104% | 54.7% | 23% | 1 to 1.2 µM | 113.554% and 104.708% | 107.162% and 119.822% and 97.6289% | 93.2408% and 94.967% | 80.2996% and 90.3554% and 69.1714% | 51.0815% and 43.0724% | 24.9133% and 20.9046% | -0.06982% and 0.1224% and 1.03% | -0.1785% and -0.1531% and -0.21% | 97.5079% and 115.29% | viability at 72 h, 30 nmol/L ([1]; concentration 30 nmol/L, individual replicates, Supplementary Fig. 7g, read-out: Cell viability (%) relative to DMSO): 101%; Cell viability (%) relative to DMSO (Jurkat cells; concentration 30 nmol/L): 100.694% and 103.862%; Cell viability (%) relative to DMSO (Jurkat cells; concentration 100 nmol/L): 98.8981% and 102.192%; Cell viability (%) relative to DMSO (Jurkat cells; concentration 300 nmol/L): 95.2575% and 90.332%; Cell viability (%) relative to DMSO (Jurkat cells; concentration 1000 nmol/L): 81.9098% and 92.9141%; Cell viability (%) relative to DMSO (Jurkat cells; concentration 3000 nmol/L): 61.001% and 70.9093%; Cell viability (%) relative to DMSO (Jurkat cells; concentration 10000 nmol/L): 25.3619% and 36.1626%; Cell viability (%) relative to DMSO (Jurkat cells; concentration 30000 nmol/L): 28.6334% and 13.2236% and 16.0233%; BRD2 degradation in KBM7 cells (BRD2 [2]): did not induce degradation of BRD2; Caspase 3/7 activity (fold change) (caspase-3/7 activity; 0.3 μM): 1.197 fold change and 0.791 fold change and 0.9918 fold change; Caspase 3/7 activity (fold change) (caspase-3/7 activity; 1 μM): 1.23 fold change and 0.8887 fold change and 1.1561 fold change
2 | Cc1sc2c(c1C)C(c1ccc(Cl)cc1)=NC(CC(=O)NCCOCCOCCOCCOCCNC(=O)COc1c(Br)cc(CC3C(=O)Nc4ccc(Br)cc43)cc1Br)c1nnc(C)n1-2 (stereo not drawn) [Compound 16] | 95.2% | 99.6% | 96.7% | 82.7% | 60% | 8.63% | 97.2% | 92.6% | 49.7% | 16.6% | 1 to 1.2 µM | 112.636% and 96.9495% | 115.001% and 96.0444% | 99.9011% and 81.8303% | 80.1727% and 96.1576% and 71.4791% | 60.9647% and 43.3109% | 18.6473% and 16.4385% | -0.2254% and 0.02364% and 0.3624% | -0.3131% and -0.2888% and -0.253% | 99.6715% and 109.515% | viability at 72 h, 0.03 µM ([1]; 72 h, 30 nM, Fig. 4k, read-out: Relative cell viability (%)): 102%; Cell viability (%) relative to DMSO (Jurkat cells; concentration 30 nmol/L): 97.9616% and 103.22% and 119.751%; Cell viability (%) relative to DMSO (Jurkat cells; concentration 100 nmol/L): 100.592% and 111.273%; Cell viability (%) relative to DMSO (Jurkat cells; concentration 300 nmol/L): 96.8221% and 108.638%; Cell viability (%) relative to DMSO (Jurkat cells; concentration 1000 nmol/L): 85.5266% and 95.8957%; Cell viability (%) relative to DMSO (Jurkat cells; concentration 3000 nmol/L): 59.9059% and 72.5452%; Cell viability (%) relative to DMSO (Jurkat cells; concentration 10000 nmol/L): 8.512% and 16.0463%; Cell viability (%) relative to DMSO (Jurkat cells; concentration 30000 nmol/L): -0.0717% and -0.2673% and -0.08298%; BRD2 degradation in KBM7 cells (BRD2 [2]): did not induce degradation of BRD2; Caspase 3/7 activity (fold change) (caspase-3/7 activity; 0.3 μM): 1.231 fold change and 1.654 fold change and 1.232 fold change; Caspase 3/7 activity (fold change) (caspase-3/7 activity; 1 μM): 1.2 fold change and 1.194 fold change and 1.182 fold change; BRD2 depletion by In-Cell Western (BRD2 [3]): did not induce in cellulo degradation
